According to patent US8193189B2, “Quinoxaline derivatives as tyrosine kinase activity inhibitors” (Novartis AG, priority 2007, dated 2012):

Legend:
Type in all cases: biochemical
GST-TYK2(888-1187) = target: T1, GST-TYK2(888-1187) (Homo sapiens, UniProt P29597); assay: EPK JAK-family kinases profiling assay (Caliper mobility shift), TYK2; settings: ATP 30 μM, 40 nM kinase
T1 construct: GST-TYK2(888-1187); made in house
T1 sequence (P29597 888-1187): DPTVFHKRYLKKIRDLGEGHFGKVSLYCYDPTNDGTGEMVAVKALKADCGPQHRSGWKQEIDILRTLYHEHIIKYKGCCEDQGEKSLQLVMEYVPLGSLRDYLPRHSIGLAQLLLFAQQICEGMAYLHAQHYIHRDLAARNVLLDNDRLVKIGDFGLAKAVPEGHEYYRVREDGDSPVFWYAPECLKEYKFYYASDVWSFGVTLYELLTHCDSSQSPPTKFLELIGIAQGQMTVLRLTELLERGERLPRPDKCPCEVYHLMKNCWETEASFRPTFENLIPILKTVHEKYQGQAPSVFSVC
Excerpt: All four kinases of the JAK-family kinases were used as purified recombinant GST-fusion proteins, containing the active kinase domains. GST-JAK1(866-1154), GST-JAK3(811-1124), and GST-TYK2(888-1187) were expressed and purified by affinity chromatography at the EPK biology unit. GST-JAK2(808-1132) was purchased from Invitrogen (Carlsbad, USA, #4288).
The kinase assays were based on the Caliper mobility shift assay using the LabChip 3000 systems. This technology is similar to capillary electrophoresis and uses charge driven separation of substrate and product in a microfluidic chip.
All kinase reactions were performed in 384 well microtiter plates in a total reaction volume of 18 μl. The assay plates were prepared with 0.1 μl per well of test compound in the appropriate test concentration, as described under the section “preparation of compound dilutions”. The reactions were started by combining 9 μl of substrate mix (consisting of peptide and ATP) with 9 μl of kinase dilution. The reactions were incubated for 60 minutes at 30° C. and stopped by adding 70 μl of stop buffer (100 mM Hepes, 5% DMSO, 0.1% Coating reagent, 10 mM EDTA, 0.015% Brij 35).
Fluorescently labeled synthetic peptides were used as substrates in all reactions. […] Specific assay conditions are described in Table 1:
The terminated reactions were transferred to the Caliper LabChip 3000 reader and the turnover of each reaction was measured by determining the substrate/product ratio.
Test compounds were dissolved in DMSO (10 mM) and transferred into 1.4 mL flat bottom or V-shaped Matrix tubes carrying a unique 2D matrix chip by individual compound hubs. The numbers of these chips were distinctively linked to the individual compound identification numbers. The stock solutions were stored at −20° C. if not used immediately. For the test procedure the vials were defrosted and identified by a scanner whereby a working sheet was generated that guided the subsequent working steps.
Compound dilutions were made in 96 well plates. This format enabled the assay of maximally 40 individual test compounds at 8 concentrations (single points) including 4 reference compounds. The dilution protocol included the production of pre-dilution plates, master plates and assay plates:
Pre-dilution plates: 96 polypropylene well plates were used as pre-dilution plates. A total of 4 pre-dilution plates were prepared including 10 test compounds each on the plate positions A1-A10, one standard compound at A11 and one DMSO control at A12. All dilution steps were done on a HamiltonSTAR robot.
Master plates: 100 μL of individual compound dilutions including standard compound and controls of the 4 “pre-dilution plates” were transferred into a 384 “master plate” including the following concentrations 1′820, 564, 182, 54.6, 18.2, 5.46, 1.82 and 0.546 μM, respectively in 90% of DMSO.
Assay plates: Identical assay plates were then prepared by pipetting 100 nL each of compound dilutions of the master plates into 384-well “assay plates”. […] The preparation of the master plates were handled by the Matrix PlateMate Plus robot and replication of assay plates by the HummingBird robot.

GST-JAK1(866-1154) = target: T2, GST-JAK1(866-1154) (Homo sapiens, UniProt P23458); assay: EPK JAK-family kinases profiling assay (Caliper mobility shift), JAK1; settings: ATP 40 μM, 50 nM kinase
T2 construct: GST-JAK1(866-1154); made in house
How it was run: (§1)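 Turnover was read as substrate/product ratio after mobility-shift capillary-like separation of each reaction, run for 60 min at 30 °C with GST-tagged kinase domain, labelled peptide and ATP, and terminated with EDTA stop buffer.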

GST-JAK2(808-1132) = target: T3, GST-JAK2(808-1132) (Homo sapiens, UniProt O60674); assay: EPK JAK-family kinases profiling assay (Caliper mobility shift), JAK2; settings: ATP 20 μM
T3 construct: GST-JAK2(808-1132); purchased Invitrogen (Carlsbad, USA) #4288
How it was run: as §1

T3 sequence (O60674 808-1132): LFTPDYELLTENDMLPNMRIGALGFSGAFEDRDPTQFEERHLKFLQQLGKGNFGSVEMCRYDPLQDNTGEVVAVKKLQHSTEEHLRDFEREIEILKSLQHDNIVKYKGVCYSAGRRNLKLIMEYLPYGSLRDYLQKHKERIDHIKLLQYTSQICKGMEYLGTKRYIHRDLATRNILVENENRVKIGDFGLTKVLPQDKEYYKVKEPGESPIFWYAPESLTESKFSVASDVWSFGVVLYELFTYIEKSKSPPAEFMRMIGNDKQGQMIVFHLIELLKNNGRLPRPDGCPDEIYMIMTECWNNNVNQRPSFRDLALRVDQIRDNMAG
T2 sequence (P23458 866-1154): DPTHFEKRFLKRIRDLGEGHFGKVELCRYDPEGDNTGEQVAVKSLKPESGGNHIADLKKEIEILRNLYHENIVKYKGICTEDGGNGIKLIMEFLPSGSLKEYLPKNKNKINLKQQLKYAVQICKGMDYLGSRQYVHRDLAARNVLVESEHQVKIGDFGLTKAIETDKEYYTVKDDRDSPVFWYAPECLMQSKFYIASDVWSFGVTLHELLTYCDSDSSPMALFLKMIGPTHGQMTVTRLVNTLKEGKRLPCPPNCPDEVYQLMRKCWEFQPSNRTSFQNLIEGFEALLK

| SMILES | IC50 (GST-TYK2(888-1187)) | IC50 (GST-JAK1(866-1154)) | IC50 (GST-JAK2(808-1132); 1.8 nM kinase) | IC50 (GST-JAK2(808-1132); […] kinase) |
| --- | --- | --- | --- | --- |
| Cc1cc(CN2CCOCC2)ccc1-c1cccc2ncc(-c3cnn(C4CCNCC4)c3)nc12 [Example 147, 8-(2-Methyl-4-morpholin-4-ylmethyl-phenyl)-2-(1-piperidin-4-yl-1H-pyrazol-4-yl)-quinoxaline] | 1000 nM | 1500 nM | 97 nM |  |
| Cc1nn(C2CCNCC2)c(C)c1-c1cnc2cccc(-c3cc(F)c(CN4CCOCC4)c(F)c3)c2n1 [Example 155, 8-(3,5-Difluoro-4-morpholin-4-ylmethyl-phenyl)-2-(3,5-dimethyl-1-piperidin-4-yl-1H-pyrazol-4-yl)-quinoxaline] | 7600 nM | 3400 nM | 63 nM |  |
| Cc1nn(C2CCNCC2)c(C)c1-c1cnc2cccc(-c3ccc(CN4CCOCC4)cc3)c2n1 [Example 156, 2-(3,5-Dimethyl-1-piperidin-4-yl-1H-pyrazol-4-yl)-8-(4-morpholin-4-ylmethyl-phenyl)-quinoxaline] | > 10000 nM | > 10000 nM | 950 nM |  |
| Cc1nn(C2CCNCC2)c(C)c1-c1cnc2cccc(-c3ccc(CN4CCS(=O)(=O)CC4)cc3)c2n1 [Example 157, 2-(3,5-Dimethyl-1-piperidin-4-yl-1H-pyrazol-4-yl)-8-[4-(1,1-dioxido-thiomorpholin-4-ylmethyl)-phenyl]-quinoxaline] | 6400 nM | 3600 nM | 140 nM |  |
| Cc1cc(-c2cccc3ncc(-c4c(C)nn(C5CCNCC5)c4C)nc23)ccc1CN1CCOCC1 [Example 158, 2-(3,5-Dimethyl-1-piperidin-4-yl-1H-pyrazol-4-yl)-8-(3-methyl-4-morpholin-4-ylmethyl-phenyl)-quinoxaline] | > 10000 nM | > 10000 nM | 650 nM |  |
| CN1CCN(C(=O)c2cccc(-c3cnc4cccc(-c5cc(F)c(CN6CCOCC6)c(F)c5)c4n3)c2)CC1 [Example 164, {3-[8-(3,5-Difluoro-4-morpholin-4-ylmethyl-phenyl)-quinoxalin-2-yl]-phenyl}-(4-methyl-piperazin-1-yl)-methanone] | 2000 nM | 300 nM | 50 nM |  |
| CN1CCN(C(=O)c2cccc(-c3cnc4cccc(-c5ccc(CN6CCS(=O)(=O)CC6)cc5)c4n3)c2)CC1 [Example 165, (3-{8-[4-(1,1-Dioxido-thiomorpholin-4-ylmethyl)-phenyl]-quinoxalin-2-yl}-phenyl)-(4-methyl-piperazin-1-yl)-methanone] | 1200 nM | 160 nM | 74 nM |  |
| CC(C)(O)C#Cc1cnc2cccc(-c3cc(F)c(CN4CCS(=O)(=O)CC4)c(F)c3)c2n1 [Example 171, 4-{8-[4-(1,1-Dioxido-thiomorpholin-4-ylmethyl)-3,5-difluoro-phenyl]-quinoxalin-2-yl}-2-methyl-but-3-yn-2-ol] | 2000 nM | 440 nM | 70 nM |  |

Stronger by IC50 (GST-TYK2(888-1187)), values ahead:

| IC50 (GST-TYK2(888-1187)) | IC50 (GST-JAK1(866-1154)) | IC50 (GST-JAK2(808-1132); 1.8 nM kinase) | IC50 (GST-JAK2(808-1132); […] kinase) | SMILES |
| --- | --- | --- | --- | --- |
| 400 nM | 360 nM | 6.4 nM |  | Fc1cc(-c2cccc3ncc(-c4cnn(C5CCCNC5)c4)nc23)cc(F)c1CN1CCOCC1 (racemic) [Example 160, (rac)-8-(3,5-Difluoro-4-morpholin-4-ylmethyl-phenyl)-2-(1-piperidin-3-yl-1H-pyrazol-4-yl)-quinoxaline] |
| 235 nM | 27 nM |  | 5.1 nM | COc1cc(-c2cnc3cccc(-c4ccc(CC(=O)N5CCS(=O)(=O)CC5)cc4)c3n2)cc(OC)c1OC [Example 13, 1-(1,1-Dioxido-thiomorpholin-4-yl)-2-{4-[3-(3,4,5-trimethoxy-phenyl)-quinoxalin-5-yl]-phenyl}-ethanone] |
| 230 nM | 200 nM | 3.8 nM |  | CC(=O)N1CCC(n2cc(-c3cnc4cccc(-c5cc(F)c(CN6CCOCC6)c(F)c5)c4n3)cn2)CC1 [Example 121, 1-(4-{4-[8-(3,5-Difluoro-4-morpholin-4-ylmethyl-phenyl)-quinoxalin-2-yl]-pyrazol-1-yl}-piperidin-1-yl)-ethanone] |
| 480 nM | 110 nM | < 3 nM |  | COc1ccc(-c2cnc3cccc(-c4ccc(CN5CCS(=O)(=O)CC5)cc4)c3n2)cc1N1CCN(C)CC1 [Example 161, 8-[4-(1,1-Dioxido-thiomorpholin-4-ylmethyl)-phenyl]-2-[4-methoxy-3-(4-methyl-piperazin-1-yl)-phenyl]-quinoxaline] |
| 360 nM | 69 nM | 5.7 nM |  | COc1ccc(-c2cnc3cccc(-c4cc(F)c(CN5CCOCC5)c(F)c4)c3n2)cc1N1CCN(C)CC1 [Example 162, 8-(3,5-Difluoro-4-morpholin-4-ylmethyl-phenyl)-2-[4-methoxy-3-(4-methyl-piperazin-1-yl)-phenyl]-quinoxaline] |
| 88 nM | 77 nM | < 3 nM |  | COc1ccc(-c2cnc3cccc(-c4cc(F)c(CN5CCS(=O)(=O)CC5)c(F)c4)c3n2)cc1N1CCN(C)CC1 [Example 163, 8-[4-(1,1-Dioxido-thiomorpholin-4-ylmethyl)-3,5-difluoro-phenyl]-2-[4-methoxy-3-(4-methyl-piperazin-1-yl)-phenyl]-quinoxaline] |
| 270 nM | 70 nM | 11 nM |  | CN1CCN(C(=O)c2cccc(-c3cnc4cccc(-c5cc(F)c(CN6CCS(=O)(=O)CC6)c(F)c5)c4n3)c2)CC1 [Example 166, (3-{8-[4-(1,1-Dioxido-thiomorpholin-4-ylmethyl)-3,5-difluoro-phenyl]-quinoxalin-2-yl}-phenyl)-(4-methyl-piperazin-1-yl)-methanone] |
| 180 nM | 53 nM | 8.1 nM |  | CN1CCN(C(=O)c2cc(-c3cnc4cccc(-c5cc(F)c(CN6CCOCC6)c(F)c5)c4n3)cn2C)CC1 [Example 167, {4-[8-(3,5-Difluoro-4-morpholin-4-ylmethyl-phenyl)-quinoxalin-2-yl]-1-methyl-1H-pyrrol-2-yl}-(4-methyl-piperazin-1-yl)-methanone] |
| 30 nM | 16 nM | < 3 nM |  | CN1CCN(C(=O)c2cc(-c3cnc4cccc(-c5cc(F)c(CN6CCS(=O)(=O)CC6)c(F)c5)c4n3)cn2C)CC1 [Example 168, (4-{8-[4-(1,1-Dioxido-thiomorpholin-4-ylmethyl)-3,5-difluoro-phenyl]-quinoxalin-2-yl}-1-methyl-1H-pyrrol-2-yl)-(4-methyl-piperazin-1-yl)-methanone] |
| 26 nM | 17 nM | < 3 nM |  | O=S1(=O)CCN(Cc2c(F)cc(-c3cccc4ncc(-c5cccc(N6CCNCC6)c5)nc34)cc2F)CC1 [Example 169, 8-[4-(1,1-Dioxido-thiomorpholin-4-ylmethyl)-3,5-difluoro-phenyl]-2-(3-piperazin-1-yl-phenyl)-quinoxaline] |
